{"source": "patent US10870713B2", "about": "“Procatalyst and polymerization process using the same” (Dow Global Technologies LLC, priority 2015, dated 2020)", "key": {"[1]": {"assay": "Batch polymerization of ethylene and 1-octene in a Parr reactor (catalyst efficiency)", "conditions": "reactor 147° C.; ISOPAR-E 1320 g; 1-octene 250 g; ethylene 410 psi; 10 min; procatalyst:activator 1:1.2; procatalyst:MMAO 1:50", "excerpt": "The procatalysts shown above were used to polymerize ethylene and 1-octene in a Parr batch polymerization reactor. All feeds were passed through columns of alumina and Q-5 catalyst (available from Engelhard Chemicals Inc.) prior to introduction into the polymerization reactor. Procatalyst and activator solutions were handled in a glove box under nitrogen atmosphere prior to addition to the polymerization reactor.\nTable 2 illustrates the batch polymerizations results for each of C1 and 11-12 under the following conditions: reactor temperature: 147° C.; ISOPAR-E: 1320 g; 1-octene: 250 g; ethylene pressure: 410 psi; Run time: 10 min; procatalyst to activator ratio is 1:1.2; activator=[HNMe(C18H37)2][B(C6F5)4]; procatalyst to MMAO ratio is 1:50; […]\nThe catalyst efficiency is calculated by dividing the number of grams of the polyolefin copolymer prepared by the total number of grams of metal M of ingredient (a) employed (i.e., metal M of the at least one metal-ligand complex of formula (I)) (i.e., catalyst efficiency=g polyolefin copolymer prepared/g metal M of metal-ligand complex(es) of formula (I) employed)."}, "[2]": {"assay": "Solubility testing of procatalysts in aliphatic hydrocarbon solvents", "format": "physicochemical", "method": "Hexanes (10 mL) was added to this material and the solution was allowed to settle overnight. 5.03 grams of the clear supernatant hexanes was removed from the vial, then the hexanes was removed from this clear solution to leave behind 205 mg of product.\nHexanes (10 mL) was added to this material and the solution was allowed to settle overnight. 5.1 grams of the clear supernatant hexanes was removed from the vial, then the hexanes was removed from this clear solution to leave behind 140 mg of product.\nAbout 950 mg of pre-catalyst used. Added ISOPAR-E (40 mL). Swirled solution then allowed insoluble material to settle to the bottom of the jar overnight. Removed 5.06 grams of ISOPAR-E solution into a vial. Solvent was removed and 120 mg of pre-catalyst was obtained.\nTo 72.3 mg of the solid in a vial was added 0.9 mL of ISOPAR E. The solution was stirred for about 1 h. The mixture was filtered and the solution was weighted (0.2934 g).\nA 20-mL vial was charged with 82.0 mg of the Hf-complex and 0.8 mL of ISOPAR E. The mixture was stirred for 2 h and it was filtered via syringe filter. The colorless solution was weight and then concentrated under vacuum for 3 h. The white solid was weight to obtained 0.0217 g for a 6.2 w/w % solubility.\nTo the solid was added 0.2198 g of ISOPAR E and stirred for 1 hour. The solid completely dissolved to indicate a 9.5 wt % solubility in ISOPAR E.\nTo the Hf-complex was added 4 mL of hexane, and the solution was stirred for 4 hours. The solution was filtered via syringe to provide a weight of 2.0638 g. This solution was concentrated under vacuum to afford 0.3228 g of the solid 17 indicative of a 15.6 wt % solubility in hexanes. […]\nSolubility was determined by either first forming a saturated solution of the procatalyst in one or more of the solvents as shown in Table 1. […] A portion of the clear supernatant is removed, and the mass is recorded. […] The mass of the resulting procatalyst that was in solution is recorded, allowing for calculation of a w/w % solubility in the indicated solvent. […]"}}}
{"smiles": "Cc1cc2c(c(-n3c4ccccc4c4ccccc43)c1)[O][Hf-2]13([CH3])([CH3])[O]c4c(cc(C)cc4-n4c5ccccc5c5ccccc54)-c4ccccc4[O+]1C[C@@H]1CCCCC1C[O+]3c1ccccc1-2", "note": "(stereo partly shown) [Procatalyst C1]", "values": [{"measurement": "Efficiency", "setting": "[1]", "value": "826,377 g polyolefin copolymer prepared/g metal M"}, {"measurement": "wt/wt % Solubility, ISOPAR-E", "setting": "[2]; solvent ISOPAR-E", "value": 1.2, "unit": "wt/wt %"}, {"measurement": "wt/wt % Solubility, Hexanes", "setting": "[2]; solvent hexanes", "value": 0.5, "unit": "wt/wt %"}, {"measurement": "wt/wt % Solubility, Methylcyclohexane", "setting": "[2]; solvent methylcyclohexane", "value": 1.7, "unit": "wt/wt %"}]}
